Source: patent publication US20250205342A1, “IRAK DEGRADERS AND USES THEREOF” (Kymera Therapeutics, Inc., priority 2022, published 2025)

Legend:
IRAK4 [1] = target: T1, IRAK4 (Homo sapiens, UniProt Q9NWZ3); experiment: hPBMC IRAK4 degradation flow assay (monocytes); format: cell-based; parameters: endogenous in cells; host or cells: human PBMCs (monocytes, CD14 positive gate); conditions: CD14 positive monocytes, 20 h, read-out: hPBMC monocyte DC50 at 20 h
T1 sequence (Q9NWZ3 1-460): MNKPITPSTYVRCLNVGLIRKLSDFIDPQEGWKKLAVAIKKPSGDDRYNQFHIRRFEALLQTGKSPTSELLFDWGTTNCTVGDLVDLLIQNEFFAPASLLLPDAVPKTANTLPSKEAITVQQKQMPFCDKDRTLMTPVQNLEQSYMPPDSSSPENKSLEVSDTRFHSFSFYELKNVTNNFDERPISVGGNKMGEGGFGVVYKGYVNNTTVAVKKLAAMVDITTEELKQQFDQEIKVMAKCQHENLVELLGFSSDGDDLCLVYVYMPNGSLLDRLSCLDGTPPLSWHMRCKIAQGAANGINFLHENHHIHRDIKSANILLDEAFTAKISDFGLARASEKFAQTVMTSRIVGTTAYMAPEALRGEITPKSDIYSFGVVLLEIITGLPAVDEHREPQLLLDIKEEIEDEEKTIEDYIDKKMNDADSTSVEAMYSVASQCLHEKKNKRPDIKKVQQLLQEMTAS
Description: In the hPBMC IRAK4 degradation flow assay, frozen PBMCs were thawed into RPMI with 10% FBS and allowed to recover. On the same day as thawed, PBMCs were plated in 96 well plate, 90 μL per well. Compound plates were prepared and a 10 point, 5-fold dilution was performed with a final DMSO concentration of 0.1%. Compound 10 μL per well was added, sealed and incubated at 37° C., 5% CO2 for 20 hours (for 4 hour treatment, compounds were prepared and added the following day). Following the treatment incubation period (day 1), 1.6% PFA was added to PBMC plate and placed on plate shaker for 30 seconds and incubated for 10 mins at room temperature. Cells were spun down and washed two times with PBS/0.5% BSA, aspirated to pellet and placed into −80° C. freezer until further processing for flow. On the flow run day, PBMC plates were thawed and samples were transferred to PCR plates. The pre-perm staining cocktail (CD3 Ax488/CD8 BUV805/CD14 BUV395/CD16/56 BV711/CD19 BV785) was added to samples and incubated for 30 minutes at room temperature. Samples were washed two times and permeabilized with methanol for 10 minutes at 4° C. Samples were washed two times and the post-perm staining cocktail (CD4 PE/IRAK4 Ax647 BD #560315) was added and incubated for 30 minutes at room temperature. Samples were washed two times with PBS/BSA and run on a BD LSRFortessa. Mononuclear cells are gated by SSCH/FSCH and single cells. Monocytes are then gated through CD14 positive gate and lymphocytes are gated through CD14 negative gate. To determine absolute DC50 and max degradation values, MFI values were normalized to DMSO max and 20 hour 10 µM min control. Twenty hour dose curves were calculated using a 4 parameter logistic regression curve fit, no constraints (Top doses were removed if hook effects were observed and the bottom was constrained to 0).
(§1) IRAK4 MSD degradation in OCI-LY10 results at 4 and 24 hrs and hPBMC at 20 hrs for compounds of the invention are presented in Table 3. The letter codes for IRAK4 DC50 include: A (<0.1 μM), B (0.1-1.0 μM), C(>1.0-10.0 μM), D (>10.0 μM or not determined).

IRAK4 [2] = target: T1, IRAK4; experiment: IRAK4 degradation in OCI-LY10 (MSD, Meso Scale Discovery); format: cell-based; parameters: endogenous in cells; host or cells: OCI-LY10; conditions: OCI-LY10 cells, 24 h
Description: Degradation of IRAK4 in OCI-LY10 was quantitatively measured using Meso Scale Discovery technology. OCI-LY10 cells were seeded in 96-well plates (Corning 3799) with a density of 300,000 cells per well in 100 μL fresh media. Compounds were then added to the assay plates with a final top concentration of 1 to 10 μM in a 1:3 dilution series with total of 8 doses. The assay plates were then incubated for 4 to 24 hours at 37° C. under 5% CO2. The assay plates were then centrifuged for 5 minutes and the cell pellets were treated with 100 μL/well RIPA lysis buffer (Boston BioProducts BP-115D) with proteinase inhibitors. To prepare MSD assay plates (Meso Scale Discovery Catalog number L15XA-3), the plates were coated with 2 ug/mL capture antibody (mouse Anti-IRAK4 antibody [2H9], ab119942) in PBS, at 40 μL/well. The plates were then incubated overnight at […], washed 3 times with 150 μL/well TBST buffer (Cell Signaling Technology, Catalog number 9997S) and blocked with 150 μL/well blocking buffer (Meso Scale Discovery Catalog number R^93BA-4). Cell lysates were then added to MSD assay plates and the plates were incubated at room temperature for 1 hour. The plates were then washed 3 times with 150 μL/well TBST buffer and 25 μL/well primary detection antibody (rabbit Anti-IRAK4 antibody [Y279], from Abcam. Catalog number ab32511, 1 μg/mL). The assay plates were then incubated at room temperature for 1 hour, washed 3 times with 150 μL/well TBST buffer and 25 μL/well secondary detection antibody, SULFO-TAG anti-rabbit antibody were added (anti-rabbit antibody from Meso Scale Discovery, Catalog number R^32AB-1, 1 μg/mL). The assay plates were then incubated at room temperature for 1 hour, washed 3 times with 150 μL/well TBST buffer, and 150 μL/well MSD reading buffer (Meso Scale Discovery catalog number R^92TC-2) was added. The plates were then analyzed by a MSD reader (Meso Scale Discovery, Model Quick Plex SQ 120). The data was then analyzed by software Prism 7.0 from GraphPad and the dose-depended IRAK4 degradation were fit using a three-parameter logistic equation to calculate DC50.
as §1

| SMILES | DC50 (IRAK4 [1]) [µM] | DC50 (IRAK4 [2]) [µM] |
| --- | --- | --- |
| O=C(O)Cn1cc(NC(=O)[C@H]2CCCN(c3cncc(NCCOCCOCCOCCOCCNC[C@H]4CC[C@H](n5cc(NC(=O)c6cnn7ccc(N8C[C@H]9C[C@@H]8CO9)nc67)c(C(F)F)n5)CC4)c3)C2)ccc1=O [Compound I-4] | > 10 | > 10 |
| CCOC(=O)Cn1cc(NC(=O)[C@H]2CCCN(c3cncc(OCCNC[C@H]4CC[C@H](n5cc(NC(=O)c6cnn7ccc(N8C[C@H]9C[C@@H]8CO9)nc67)c(C(F)F)n5)CC4)c3)C2)ccc1=O [Compound I-48] | 1 to 10 | > 10 |
| CC(C)(O)c1cc2nn([C@H]3CC[C@H](CNCCCCCCCCCc4cccc5c(-c6cccc(C(=O)Nc7ccc(=O)n(CC(=O)O)c7)c6)cncc45)CC3)cc2cc1NC(=O)c1cccc(C(F)(F)F)n1 [Compound I-50] | > 10 | > 10 |
| CC(C)(O)c1cc2nn([C@H]3CC[C@H](CNCCCCCCCCCc4ccc5c(-c6cccc(C(=O)Nc7ccc(=O)n(CC(=O)O)c7)c6)cncc5c4)CC3)cc2cc1NC(=O)c1cccc(C(F)(F)F)n1 [Compound I-53] | > 10 | > 10 |
| O=C(O)Cn1cc(NC(=O)c2cccc(-c3cncc(CCCNC[C@H]4CC[C@H](n5cc(NC(=O)c6cnn7ccc(N8C[C@H]9C[C@@H]8CO9)nc67)c(C(F)F)n5)CC4)c3)c2)ccc1=O [Compound I-87] | > 10 | > 10 |
| CCOC(=O)Cn1cc(NC(=O)c2cccc3c2ccn3CCCCCCNC[C@H]2CC[C@H](n3cc(NC(=O)c4cnn5ccc(N6C[C@H]7C[C@@H]6CO7)nc45)c(C(F)F)n3)CC2)ccc1=O [Compound I-61] | 1 to 10 | > 10 |
| CCOC(=O)Cn1cc(NC(=O)c2cccc(-c3cncc(CCCCCCCCCNC[C@H]4CC[C@H](n5cc(NC(=O)c6cnn7ccc(N8C[C@H]9C[C@@H]8CO9)nc67)c(C(F)F)n5)CC4)c3)c2)ccc1=O [Compound I-89] | 1 to 10 | 1 to 10 |
| CCOC(=O)Cn1cc(NC(=O)c2cccc(-c3cncc(CCCNC[C@H]4CC[C@H](n5cc(NC(=O)c6cnn7ccc(N8C[C@H]9C[C@@H]8CO9)nc67)c(C(F)F)n5)CC4)c3)c2)ccc1=O [Compound I-91] | > 10 | > 10 |
| CCOC(=O)Cn1cc(NC(=O)[C@H]2CCCN(c3cncc(CCNC[C@H]4CC[C@H](n5cc(NC(=O)c6cnn7ccc(N8C[C@H]9C[C@@H]8CO9)nc67)c(C(F)F)n5)CC4)c3)C2)ccc1=O [Compound I-36] | 1 to 10 | > 10 |
| COc1cc(-c2ccc(CCCCCCCCCNC[C@H]3CC[C@H](n4cc(NC(=O)c5cnn6ccc(N7C[C@H]8C[C@@H]7CO8)nc56)c(C(F)F)n4)CC3)cc2)ccc1C(=O)Nc1ccc(=O)n(CC(=O)O)c1 [Compound I-62] | > 10 | > 10 |
| O=C(O)Cn1cc(NC(=O)[C@H]2CCCN(c3cncc(CCCCNC[C@H]4CC[C@H](n5cc(NC(=O)c6cnn7ccc(N8C[C@H]9C[C@@H]8CO9)nc67)c(C(F)F)n5)CC4)c3)C2)ccc1=O [Compound I-21] | 1 to 10 | > 10 |
| O=C(O)Cn1cc(NC(=O)[C@H]2CCCN(c3cncc(C#CCOC4CCN(C[C@H]5CC[C@H](n6cc(NC(=O)c7cnn8ccc(N9C[C@H]%10C[C@@H]9CO%10)nc78)c(C(F)F)n6)CC5)CC4)c3)C2)ccc1=O [Compound I-11] | > 10 | > 10 |
| CCOC(=O)Cn1cc(NC(=O)[C@H]2CCCN(c3cncc(OCCOCCOCCOCCOCCNC[C@H]4CC[C@H](n5cc(NC(=O)c6cnn7ccc(N8C[C@H]9C[C@@H]8CO9)nc67)c(C(F)F)n5)CC4)c3)C2)ccc1=O [Compound I-47] | > 10 | > 10 |
| COc1cc(-c2ccc(F)c(CCCCCCCCCNC[C@H]3CC[C@H](n4cc5cc(NC(=O)c6cccc(C(F)(F)F)n6)c(C(C)(C)O)cc5n4)CC3)c2)ccc1C(=O)Nc1ccc(=O)n(CC(=O)O)c1 [Compound I-63] | > 10 | > 10 |
| O=C(O)Cn1cc(NC(=O)c2cccc3c2ccn3CCCCCCCCCNC[C@H]2CC[C@H](n3cc(NC(=O)c4cnn5ccc(N6C[C@H]7C[C@@H]6CO7)nc45)c(C(F)F)n3)CC2)ccc1=O [Compound I-70] | > 10 | > 10 |
| CCOC(=O)Cn1cc(NC(=O)c2ccc(-c3ccc(F)c(CCCCCCCCCNC[C@H]4CC[C@H](n5cc(NC(=O)c6cnn7ccc(N8C[C@H]9C[C@@H]8CO9)nc67)c(C(F)F)n5)CC4)c3)cc2OC)ccc1=O [Compound I-66] | > 10 | 1 to 10 |
| CCOC(=O)Cn1cc(NC(=O)c2cccc3c2ccn3CCCNC[C@H]2CC[C@H](n3cc4cc(NC(=O)c5cccc(C(F)(F)F)n5)c(C(C)(C)O)cc4n3)CC2)ccc1=O [Compound I-79] | > 10 | > 10 |
| CCOC(=O)Cn1cc(NC(=O)c2cccc3c2ccn3CCCCCCCCCNC[C@H]2CC[C@H](n3cc(NC(=O)c4cnn5ccc(N6C[C@H]7C[C@@H]6CO7)nc45)c(C(F)F)n3)CC2)ccc1=O [Compound I-73] | > 10 | > 10 |
| COc1cc2nn([C@H]3CC[C@H](CNCCNc4cncc(N5CCC[C@H](C(=O)Nc6ccc(=O)n(CC(=O)O)c6)C5)c4)CC3)cc2cc1NC(=O)c1cccc(C(F)(F)F)n1 [Compound I-7] | > 10 | > 10 |
| CCOC(=O)Cn1cc(NC(=O)[C@H]2CCCN(c3cncc(NCCOCCOCCOCCOCCNC[C@H]4CC[C@H](n5cc6cc(NC(=O)c7cccc(C(F)(F)F)n7)c(OC)cc6n5)CC4)c3)C2)ccc1=O [Compound I-13] | 1 to 10 | > 10 |
| CCOC(=O)Cn1cc(NC(=O)c2ccc(-c3ccc(F)c(CCCCCCCCCNC[C@H]4CC[C@H](n5cc6cc(NC(=O)c7cccc(C(F)(F)F)n7)c(C(C)(C)O)cc6n5)CC4)c3)cc2OC)ccc1=O [Compound I-64] | > 10 | 1 to 10 |
| O=C(O)Cn1cc(NC(=O)c2cc(CCCCCCNC[C@H]3CC[C@H](n4cc(NC(=O)c5cnn6ccc(N7C[C@H]8C[C@@H]7CO8)nc56)c(C(F)F)n4)CC3)cc(-c3cccnc3)c2)ccc1=O [Compound I-93] | > 10 | > 10 |
| O=C(O)Cn1cc(NC(=O)c2cccc(-c3cncc(CCCCCCCCCNC[C@H]4CC[C@H](n5cc(NC(=O)c6cnn7ccc(N8C[C@H]9C[C@@H]8CO9)nc67)c(C(F)F)n5)CC4)c3)c2)ccc1=O [Compound I-85] | > 10 | > 10 |
